Reference: patent US20250032476A1, “ALPHA-2A ADRENERGIC RECEPTOR MODULATORS AND USES THEREOF” (The Regents of the University of California, priority 2021, published 2025)
Where “and” joins values, the source holds several entries; their conditions need not be identical. Equal values may be shown once. Entries after “also recorded” stand apart in the source; their conditions may differ. Where a name gives a salt, the structure may show the parent alone. Read-outs that look alike come from different tables or passages of the source.

Legend:
[1] = test system: imidazoline-2 receptor (I2R); assay: I2R binding (Eurofins Cerep); details: tested at 500 nM
human α2AAR [2] = molecular target: T1, human α2AAR (Homo sapiens (Human), UniProt P08913); assay: Radioligand competition binding to human α2AAR (HEK293T membranes, [3H]RX82,1002); details: for Ki: human α2AAR
human α2AAR [3] = molecular target: T1, human α2AAR; assay: Gαi G protein activation, BRET biosensor assay in HEK293T cells; details: for Emax: HEK-293T
Experimental: (§3) Bioluminescense resonance energy transfer. G protein mediated activation of human α2AAR and D2long was monitored with Gαi1-RLucII (71, 72) together with Gβ1 and Gγ1-GFP10. Arrestin recruitment was performed by enhanced bystander BRET using CAAX-rGFP and β-arrestin-2-RLucII as biosensors (all biosensors are provided from M. Bouvier, Université de Montréal, Canada) (71, 73) in the presence of GRK2 as described (66, 74). In brief, HEK293T cells were transfected with a total amount of 3.3 μg DNA per 10^6 cells using linear polyethyleneimine (PEI, Polysciences, 3:1 PEI:DNA ratio) and transferred into 96-well half-area plates (Greiner, Frickenhausen, Germany) at a density of 10,000 cells per well and incubated for 48 hrs. Medium was exchanged with PBS (Hank's balanced salt solution) and cells were stimulated with ligands at 37° C. for 10 min for Gαi stimulation or arrestin recruitment, respectively.

[4] = molecular target: T2, ALPHA-2A ADRENERGIC RECEPTOR (Homo sapiens (Human), UniProt P08913); assay: Arrestin recruitment; type: cell-based; details: Tables 7-9
SNI mice = assay: Spared-nerve injury (SNI) model of neuropathic pain, von Frey mechanical thresholds; type: in vivo; details: for Effect of atipamezole on the agonist's effect in SNI mice: atipamezole 2 mg/kg, 15 minutes prior
Experimental: Spared-nerve injury (SNI) model of neuropathic pain. Under isoflurane anesthesia, two of the three branches of the sciatic nerve were ligated and transected distally, leaving the sural nerve intact. Behavior was tested 7 to 14 days after injury and in situ hybridization was performed one week post-injury.

[5] = molecular target: T2, ALPHA-2A ADRENERGIC RECEPTOR; assay: Gi recruitment (G protein); type: cell-based; details: Gi recruitment
CFA mice = assay: Complete Freund's Adjuvant (CFA) inflammatory pain model, Hargreaves test; details: mouse, in vivo
Experimental: The CFA model of chronic inflammation was induced as described previously (96). Briefly, CFA (Sigma) was diluted 1:1 with saline and vortexed for 30 minutes. When fully suspended, we injected 20 μL of CFA into one hindpaw. Heat thresholds were measured before the injection (baseline) and 3 days after using the Hargreaves test.
The CFA model of chronic inflammation was induced as described previously (100). Briefly, CFA (Sigma) was diluted 1:1 with saline and vortexed for 30 minutes. When fully suspended, we injected 20 μL of CFA into one hindpaw. Heat thresholds were measured before the injection (baseline) and 3 days after using the Hargreaves test.

[6] = Pharmacokinetics in mice (plasma, brain, CSF); type: in vivo
Experimental: Pharmacokinetics. Pharmacokinetic experiments were performed by Bienta (Enamine Biology Services) in accordance with Enamine pharmacokinetic study protocols and Institutional Animal Care and Use Guidelines (protocol number 1-2/2020). […] In each compound study, nine time points (5, 15, 30, 60, 120, 240, 360, 480 and 1440 min) were collected, each of the time point treatment group included 3 animals. There was also a control group of one animal. In the ‘9087, ‘7075, ‘4622 studies, male C57BL/6N mice were used, for PS75 CD-1 mice, and for ‘2998 male Balb/cAnN mice. For all compound studies the animals were randomly assigned to the treatment groups before the pharmacokinetic study; all animals were fasted for 4 h before dosing. For injections, ‘9087 was dissolved in Captisol—water (40%:60%, w/v), ‘4622 was dissolved in a 20% Kolliphor HS—physiological saline solution, and ‘7075, PS75, and ‘2998 were dissolved in a 20% 2-HPBCD—aqueous solution. The batches of working formulations were prepared 10 minutes prior to the in vivo study.
(§1) Mice were injected i.p. with 2,2,2-tribromoethanol at 150 mg/kg prior to drawing CSF and blood. CSF was collected under a stereomicroscope from cisterna magna using 1 mL syringes. Blood collection was performed from the orbital sinus in microtainers containing K3EDTA. Animals were sacrificed by cervical dislocation after the blood samples collection. Blood samples were centrifuged 10 min at 3000 rpm. Brain samples (right lobe) were weighed and transferred into 1.5 ml tubes. All samples were immediately processed, flash-frozen and stored at −70° C. until subsequent analysis.
Plasma samples (40 μL) were mixed with 200 μL of internal standard (IS) solution. After mixing by pipetting and centrifuging for 4 min at 6000 rpm, 4 μL of each supernatant was injected into the LC-MS/MS system. Solutions of internal standards were used to quantify compounds in the plasma samples. […] After this, the samples were centrifuged for 4 min at 14,000 rpm, and supernatant was injected into LC-MS/MS system. CSF samples (2 μL) were mixed with 40 μL of an internal stock solution. After mixing by pipetting and centrifuging for 4 min at 6,000 rpm, 5 μL of each supernatant was injected into LC-MS/MS system.
(§2) Analyses of plasma, brain and CSF samples were conducted at Enamine/Bienta. The concentrations of compounds in plasma and brain samples were determined using high performance liquid chromatography/tandem mass spectrometry (HPLC-MS/MS). Data acquisition and system control was performed using Analyst 1.5.2 software (AB Sciex, Canada). […] Pharmacokinetic data analysis was performed using noncompartmental, bolus injection or extravascular input analysis models in WinNonlin 5.2 (PharSight).
as §1, with “mL” for “ml”
as §2
Additional pharmacokinetic experiments were performed by Sai Life Sciences (Hyderabad, India) in accordance with the Sai Study Protocol SAIDMPK/PK-22-04-0340. […] Testing was done in C57BL/6 mice.

human α2AAR [7] = molecular target: T1, human α2AAR; assay: β-arrestin-2 recruitment, BRET biosensor assay in HEK293T cells
Experimental: as §3

mice [8] = assay: Rotarod motor test (motor impairment and sedation); type: in vivo
analgesia in vivo = details: result in words, Table 6
human α2AAR [9] = molecular target: T1, human α2AAR; assay: α2AAR internalization assay with rGFP-CAAX and rGFP-FYVE biosensors; type: cell-based; details: α2AAR-RlucII/rGFP-CAAX biosensor
Experimental: Human α2AAR internalization was evaluated by measuring the disappearance of hα2AAR-RlucII from the plasma membrane labeled with rGFP-CAAX and its relocalization in endosome labeled with rGFP-FYVE (39).
For concentration-response curves, BRET signal was measured after 30 min incubation. Plates were read on a Spark microplate reader (Tecan; Mannedorf, Switzerland) using the BRET2 manufacturer settings.

mice [10] = assay: Tail flick (50° C.) acute thermal pain assay; type: in vivo
naïve mice = assay: Mechanical thresholds (von Frey) in naïve (uninjured) mice; details: mouse, in vivo
[11] = Metabolic stability in male rat liver microsomes; type: in vitro ADME; details: 1 hour
Experimental: Metabolic stability studies. Metabolic stability of the test compounds was assessed using male pooled rat liver microsomes (Sprague Dawley, Sigma Aldrich) as previously described (93, 94). The reactions were carried out in 2 mL polyethylene tubes on a rotator carousel (Stuart™ SB3) in an incubator at 37° C. […] Transformation reactions were initiated by the addition of 50 μL of cofactor solution (NADPH, Carl Roth, final concentration 1 mM). […] Precipitated protein was removed by centrifugation (1 min, 16,000 rcf) and the supernatants were analysed by HPLC/MS on a Thermo Scientific Dionex Ultimate 3000 HPLC system equipped with a Zorbax Eclipse XDB-C8 column (4.6×150 mm, 5 μm), a DAD detector (210 nm, 230 nm, 254 nm, 310 nm), and a BRUKER amaZon SL mass spectrometer with ESI source. The following binary eluent system (methanol in water+0.1% (v/v) formic acid) was employed: 10% for 1 min, 10% to 100% in 20 min, 100% for 5 min, 100% to 10% in 2 min, 10% for 2 min, flow 0.4 mL/min. […] Control experiments were conducted in the absence of cofactor solution to determine non-specific binding to matrix. The integral (AUC) of the extracted ion chromatograms (EIC) was used to analyze the concentration of the remaining substrates. […]

human α2BAR = human α2BAR (Homo sapiens (Human), UniProt P18089); assay: Radioligand competition binding to human α2BAR; details: saturation binding
α2CAR = α2CAR (Homo sapiens (Human), UniProt P18825); assay: Radioligand binding to α2C adrenergic receptor; details: saturation binding
murine α2AAR = murine α2AAR (Mus musculus (Mouse), UniProt Q01338); assay: Radioligand competition binding to murine α2AAR; details: saturation binding
[12] = Body weight measurement over 48 hours; type: in vivo, mice; details: ‘9087 5, 10 or 20 mg/kg; dexmedetomidine 30 μg/kg
α2AAR-Y431^7.43A/F = α2AAR-Y431^7.43A/F (Homo sapiens, UniProt P08913, Y431A); assay: Gi activation (BRET) at α2AAR Y431^7.43 mutants; type: cell-based
Experimental: Investigating the sensitivity of selected ligands to the receptor mutants α2AAR-D128^3.32A, α2AAR-D128^3.32T, α2AAR-D128^3.32L, α2AAR-S215^5.42A, α2AAR-Y409^6.55A, α2AAR-Y409^6.55T, α2AAR-Y409^6.55F, α2AAR-F427^7.39F, α2AAR-Y431^7.43A, and α2AAR-Y431^7.43F was determined by monitored G protein stimulation as described above transfecting the appropriate receptor together with Gαi1-RLucII and Gβ1/Gγ1-GFP10. […] Three to ten experiments were done in duplicate.
The sensitivity of selected ligands to the receptor mutants α2AAR-D128^3.32A, α2AAR-D128^3.32T, α2AAR-D128^3.32L, α2AAR-S215^5.42A, α2AAR-Y409^6.55A, α2AAR-Y409^6.55T, α2AAR-Y409^6.55F, α2AAR-F427^7.39F, α2AAR-Y431^7.43A, and α2AAR-Y431^7.43F was monitored by G protein activation as described above transfecting the appropriate receptor together with Gαi1-RLucII and Gβ1/Gγ2-GFP10. […] Similarly, the effect of the α2AAR-D128^3.32A, α2AAR-S215^5.42A, α2AAR-Y409^6.55A, α2AAR-Y409^6.55F, α2AAR-F427^7.39F, α2AAR-Y431^7.43A, and α2AAR-Y431^7.43F mutations on arrestin recruitment was evaluated as described above transfecting the appropriate receptor together with CAAX-rGFP, GRK2 and β-arrestin-2-RLucII. Data was analyzed as ligand induced changes in BRET compared to vehicle (deltaBRET). Three to seven experiments were done in duplicate.

mice [13] = assay: Constipation assay (fecal pellets over 6 hours); details: i.p.; morphine 10 mg/kg, dexmedetomidine 30 μg/kg, ‘9087 5 mg/kg; versus vehicle
[14] = mean ± s.e.m., read-out: Ki for α2AAR
[15] = Gαi EC50, BRET biosensor, HEK293T, human α2AAR
[16] = mouse, brain, ip, I.P. 10 mg/kg, read-out: T ½ Brain (converted)
[17] = mouse, plasma, ip, I.P. 10 mg/kg
[18] = mouse, plasma, ip, I.P. 10 mg/kg, read-out: T ½ Plasma (converted)
[19] = C57BL/6N ('9087), C57BL/6 (PS75), mouse, plasma, iv, I.V. 10 mg/kg
[20] = C57BL/6N ('9087), C57BL/6 (PS75), mouse, plasma, po, P.O. 30 mg/kg

T2 sequence (P08913 whole entry): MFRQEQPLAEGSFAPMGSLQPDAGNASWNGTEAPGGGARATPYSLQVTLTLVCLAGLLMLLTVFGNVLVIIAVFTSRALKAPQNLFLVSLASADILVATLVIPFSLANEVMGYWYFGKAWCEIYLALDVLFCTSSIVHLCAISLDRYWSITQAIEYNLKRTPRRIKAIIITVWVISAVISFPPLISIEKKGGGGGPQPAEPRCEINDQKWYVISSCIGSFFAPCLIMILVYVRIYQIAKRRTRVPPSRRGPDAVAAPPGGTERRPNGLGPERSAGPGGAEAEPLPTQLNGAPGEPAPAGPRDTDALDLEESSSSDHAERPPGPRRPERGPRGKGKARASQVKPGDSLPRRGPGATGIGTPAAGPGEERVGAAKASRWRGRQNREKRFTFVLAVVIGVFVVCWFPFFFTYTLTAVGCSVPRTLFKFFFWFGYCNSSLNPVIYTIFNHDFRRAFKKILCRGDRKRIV
T1 sequence (P08913 whole entry): as above
Chain of human α2BAR (P18089 whole entry): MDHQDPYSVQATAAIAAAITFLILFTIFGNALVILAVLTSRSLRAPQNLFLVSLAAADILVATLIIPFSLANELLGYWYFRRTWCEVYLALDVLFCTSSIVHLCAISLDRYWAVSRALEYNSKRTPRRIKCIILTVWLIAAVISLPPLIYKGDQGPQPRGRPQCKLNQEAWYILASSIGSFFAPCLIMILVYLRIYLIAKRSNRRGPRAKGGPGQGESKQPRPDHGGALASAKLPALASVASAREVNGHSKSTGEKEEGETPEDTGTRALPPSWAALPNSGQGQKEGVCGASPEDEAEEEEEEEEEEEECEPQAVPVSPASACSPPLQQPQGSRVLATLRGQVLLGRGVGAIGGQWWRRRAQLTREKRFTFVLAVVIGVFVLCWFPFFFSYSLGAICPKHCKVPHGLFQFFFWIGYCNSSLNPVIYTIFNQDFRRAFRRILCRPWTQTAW
Chain of murine α2AAR (Q01338 whole entry): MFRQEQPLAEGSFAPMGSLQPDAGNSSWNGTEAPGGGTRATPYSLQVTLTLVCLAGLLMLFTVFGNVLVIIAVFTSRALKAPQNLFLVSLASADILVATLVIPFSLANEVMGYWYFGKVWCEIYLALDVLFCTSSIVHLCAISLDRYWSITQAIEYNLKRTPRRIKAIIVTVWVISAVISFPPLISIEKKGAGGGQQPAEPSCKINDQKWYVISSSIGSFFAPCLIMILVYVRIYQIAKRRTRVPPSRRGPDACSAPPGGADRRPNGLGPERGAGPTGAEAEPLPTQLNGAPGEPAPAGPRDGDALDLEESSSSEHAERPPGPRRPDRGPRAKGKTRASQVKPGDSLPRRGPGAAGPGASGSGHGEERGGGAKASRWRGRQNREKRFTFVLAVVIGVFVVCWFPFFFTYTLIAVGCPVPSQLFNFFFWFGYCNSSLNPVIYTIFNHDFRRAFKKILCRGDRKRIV
Chain of α2CAR (P18825 whole entry): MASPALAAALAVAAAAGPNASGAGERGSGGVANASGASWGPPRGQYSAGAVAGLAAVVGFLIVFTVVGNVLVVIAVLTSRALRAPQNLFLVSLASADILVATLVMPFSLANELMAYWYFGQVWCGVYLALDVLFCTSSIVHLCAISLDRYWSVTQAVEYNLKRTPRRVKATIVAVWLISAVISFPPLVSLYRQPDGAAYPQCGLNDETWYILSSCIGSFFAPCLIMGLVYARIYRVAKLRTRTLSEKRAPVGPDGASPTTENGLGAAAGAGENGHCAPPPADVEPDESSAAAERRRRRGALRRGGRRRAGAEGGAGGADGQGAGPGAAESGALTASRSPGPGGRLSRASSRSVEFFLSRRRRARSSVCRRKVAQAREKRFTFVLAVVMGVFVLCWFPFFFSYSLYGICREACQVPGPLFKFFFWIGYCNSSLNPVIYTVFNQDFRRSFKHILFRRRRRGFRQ

Cc1cc2[nH]ncc2cc1-c1ccc(N)nc1 [Compound 2998, 5-(6-Methyl-1H-indazol-5-yl)pyridin-2-amine]
I2R binding, single point radioligand experiment [1]: no binding was seen | Ki (human α2AAR [2]; [14]): 180 ± 34 nM | EC50 (human α2AAR [3]; [15]): 73 ± 14 nM | Emax (human α2AAR [3]; read-out: Gαi Emax): 61 ± 3% | Emax [4]: < 10% | Effect of atipamezole on the agonist's effect in SNI mice (SNI mice): not significant reversal; also recorded: partially reversed | Mechanical thresholds / anti-allodynic effect in SNI mice (SNI mice; systemic injection): exhibited anti-allodynic effects | EC50 ([5]; Tables 7-9, read-out: G protein EC50): 89 nM | Emax ([5]; Tables 7-9, read-out: G protein Emax (%)): 60% | Thermal latencies / anti-hyperalgesic effect in CFA model (CFA mice): did not | AUC Brain ([6]; I.P. 10 mg/kg): 51700 ng·min/mL | Cmax Brain ([6]; I.P. 10 mg/kg): 742 ng/mL | half-life [6, 16]: 0.46 h | AUC [6, 17]: 3070 ng·h/mL | Cmax [6, 17]: 2710 ng/mL | half-life [6, 18]: 0.4 h | EC50 (human α2AAR [7]): 98 ± 32 nM | Emax (human α2AAR [7]; HEK-293T, read-out: β-arrestin-2 Emax): 8 ± 3%

Clc1ccc2cccc(Nc3ccncc3)c2c1 [PS75, N-(7-Chloronaphthalen-1-yl)pyridin-4-amine x TFA]
Ki (human α2AAR [2]; mean ± SEM (Table 3), read-out: Ki): 8.2 ± 0.48 nM | Ki (human α2AAR [2]; [14]): 8.2 ± 0.48 nM | EC50 (human α2AAR [3]; Gi EC50 ± SE, BRET biosensor, human α2AAR (Table 3)): 4.8 nM | EC50 (human α2AAR [3]; [15]): 4.8 nM | Emax (human α2AAR [3]; read-out: Gi Emax ± SEM): 82% | Emax (human α2AAR [3]; read-out: Gαi Emax): 82% | Fold increased Gi potency compared to ‘9087 (human α2AAR [3]; TFA): 13 fold and 11 fold | Effect of atipamezole on the agonist's effect in SNI mice (SNI mice; TFA): not significant reversal; also recorded: partially reversed | Mechanical thresholds / anti-allodynic effect in SNI mice (SNI mice; systemic injection): exhibited anti-allodynic effects | Reversal of mechanical hypersensitivity in SNI mice (SNI mice; systemic injection): completely reversed the mechanical hypersensitivity | Performance in rotarod test (mice [8]; doses up to 20 mg/kg): did not have an effect | analgesic in vivo (analgesia in vivo): analgesic in vivo | Disappearance of α2AAR from the plasma membrane (internalization) (human α2AAR [9]): no effect | functional classification (agonist / weak agonist) ([5]; Table 6, result in words): agonist | EC50 ([5]; Table 6, read-out: EC50): 4.8 nM | Emax ([5]; Table 6, read-out: Emax (%)): 79% | AUC [6, 19]: 3460 ng·h/mL | Cmax [6, 19]: 2590 ng/mL | half-life ([6]; C57BL/6N ('9087), C57BL/6 (PS75), mouse, plasma, iv, I.V. 10 mg/kg, read-out: T ½ Plasma (converted)): 1.64 h | bioavailability ([6]; C57BL/6N ('9087), C57BL/6 (PS75), mouse, plasma, oral, from I.V. 10 mg/kg and P.O. 30 mg/kg dosing): 102% | AUC [6, 20]: 10600 ng·h/mL | Cmax [6, 20]: 2390 ng/mL | half-life ([6]; C57BL/6N ('9087), C57BL/6 (PS75), mouse, plasma, po, P.O. 30 mg/kg, read-out: T ½ Plasma (converted)): 3.17 h | half-life ([6]; C57BL/6N ('9087, '7075, '4622), CD-1 (PS75), mouse, CSF, ip, I.P. 10 mg/kg, read-out: T ½ CSF (converted)): 2.55 h | AUC Brain ([6]; I.P. 10 mg/kg): 888000 ng·min/mL | AUC CSF ([6]; I.P. 10 mg/kg): 7790 ng·min/mL | Cmax Brain ([6]; I.P. 10 mg/kg): 9200 ng/mL | Cmax CSF ([6]; I.P. 10 mg/kg): 99.3 ng/mL | half-life [6, 16]: 1.07 h | AUC [6, 17]: 927 ng·h/mL | Cmax [6, 17]: 679 ng/mL | half-life [6, 18]: 0.73 h | Withdrawal latencies, tail flick (mice [10]): increased withdrawal latencies | Mechanical thresholds of naïve (uninjured) mice (naïve mice): did increase the mechanical thresholds | Metabolic stability, compound remaining [11]: remain largely unmodified after 1 hour | Emax (human α2AAR [7]; HEK-293T, read-out: β-Arr-2 Emax @ 0.1 mM): 15% | Emax at 100 µM (human α2AAR [7]; HEK-293T, read-out: β-arrestin-2 Emax @ 0.1 mM): 15 ± 3%

COC1(C2=NCCN2)COc2ccccc2O1 (centres unmarked) [[^3H]RX82,1002]
Kd (human α2AAR [2]; saturation binding): 0.54 ± 0.024 nM | Kd (human α2BAR): 2.3 ± 0.52 nM | Kd (α2CAR): 0.58 ± 0.11 nM | Kd (murine α2AAR): 1.8 ± 0.61 nM

Cc1cccc([C@H](C)c2cnc[nH]2)c1C [dexmedetomidine]
Sedation in rotarod test (mice [8]; 60 μg/kg): completely sedating; also recorded: complete sedation | AUC Brain ([6]; I.P. 30 μg/kg): 285 ng·min/mL | Cmax Brain ([6]; I.P. 30 μg/kg): 8 ng/mL | Effect on body weight over 48 hours [12]: no effect on body weight | Gi signaling at Y431^7.43A (α2AAR-Y431^7.43A/F): essentially eliminated

CN1CC[C@]23c4c5ccc(O)c4O[C@H]2[C@@H](O)C=C[C@H]3[C@H]1C5 [morphine]
Constipation (mice [13]): induced constipation
